{
  "source": "patent US20260000655A1",
  "about": "“PHARMACEUTICAL COMPOSITION FOR USE IN PREVENTION OR TREATMENT OF LIFESTYLE-RELATED DISEASE” (priority 2022, published 2026)",
  "key": {"[1]": {"tested_on": "adenosine monophosphate-activated protein kinase (AMPK)", "experiment": "Activation of AMPK (p-AMPK/AMPK, Western blotting) in adipocyte model 3T3-L1", "type": "cell-based, mouse", "conditions": "3T3-L1 adipocytes; HPH-15 at 1/200th the concentration of metformin (2 mM); 24 hours", "description": "The tissues involved in glucose uptake and glucose metabolism are mainly the muscle, the liver, and the fat. Thus, using a cell model of each tissue, the relationship between HPH-15 and activation of adenosine monophosphate-activated protein kinase (AMPK) was examined. Note that AMPK is known as a therapeutic target for diabetes. AMPK acts as an energy sensor, and when it detects a decrease in ATP serving as an intracellular energy source, it suppresses the synthesis of glucose, fats, and proteins and produces ATP. Exercise therapy for diabetes is based on this mechanism. Further, AMPK has been drawing attention as a factor that improves insulin resistance.\nAs a muscle cell model to be used, rat myoblast cell line L6-GLUT4myc (myoblasts expressing myc-tagged GLUT4) was cultured in a minimal essential medium a-MEM (10% FBS) and differentiated into myotubes. Differentiation into myotubes was performed by culturing L6-GLUT4 cells in a-MEM (10% FBS) and then changing the medium to a-MEM (2% FBS), followed by culturing for 6 days. Human HepG2 cell line was used as a liver cell model. As an adipocyte model to be used, mouse 3T3-L1 preadipocyte cell line was differentiated into adipocytes. Differentiation into adipocytes was performed as follows. […]\nNext, bands of AMPK and p-AMPK were quantified using ImageJ to determine a ratio of activated AMPK relative to AMPK (p-AMPK/AMPK)."}, "[2]": {"tested_on": "liver cell model HepG2 cells", "experiment": "Neutral fat accumulation (Oil Red O) in presence of glucose", "type": "cell-based, human", "conditions": "HPH-15 50 μM vs metformin 2 mM, glucose 100 mM, 24 hours", "protocol": "Many patients with type 2 diabetes have fat accumulation in the visceral organs.\nThe liver cell model HepG2 cells used in Example 1 were seeded onto a 24-well plate (1×10^5 cells/well, […] of culture liquid) and cultured overnight. Then, a DMSO solution (1%) containing HPH-15 (final concentration: 50 μM) or metformin (final concentration: 2 mM) was added to the medium, and the cells were further cultured for 24 hours. As a control, only DMSO solution (1%) was added, and the cells were cultured for 24 hours in the same manner. Next, glucose (100 mM) was added to the medium, and the cells were further cultured for 24 hours. Then, the cells were fixed using 4% paraformaldehyde for 10 minutes. The fixed cells were added with an Oil Red O staining solution (Nacalai Tesque, Inc.) and shaken for 15 minutes. After washing with a 60% aqueous isopropanol solution, cell images were observed using a microscope. Further, the amount of neutral fat in the cells was determined by dissolving the stained cells in 100% isopropanol and measuring the absorbance (492 nm)."}, "[3]": {"tested_on": "high-fat diet-induced obesity model mice", "experiment": "Glucose loading test in mouse", "type": "in vivo", "conditions": "HPH-15 10 mg/kg or 100 mg/kg orally, 28 days; glucose 0.5 g/kg intraperitoneally; compared to olive oil", "protocol": "The effect of HPH-15 on the change in blood glucose levels in the presence of glucose was examined using mice.\nHigh-fat diet-induced obesity model mice were prepared in the same manner as in Example 7. Then, HPH-15 (10 mg/kg or 100 mg/kg, […]) dissolved in olive oil or metformin (300 mg/kg, […]) was orally administered once a day for 28 days. Olive oil alone was administered as a control. After 28 days of administration of each, glucose was intraperitoneally administered (0.5 g/kg) to the high-fat diet-induced obesity model mice, and blood glucose levels (mg/dl) were measured at 0, 15, 30, 60, 90, and 120 minutes after administration using a blood glucose meter Glutest Aqua (Sanwa Kagaku Kenkyusho Co., Ltd.)."}, "[4]": {"tested_on": "high-fat diet-induced obesity model mice", "experiment": "Blood test value in mouse", "type": "in vivo", "conditions": "HPH-15 10 or 100 mg/kg orally 28 days", "protocol": "High-fat diet-induced obesity model mice were prepared in the same manner as in Example 7. Then, […] of olive oil (Kenei Pharmaceutical Co., Ltd.) as a solvent, HPH-15 (10 mg/kg or 100 mg/kg, […]) dissolved in olive oil, or metformin (300 mg/kg, […]) was orally administered once a day for 28 days. After administration of each for 28 days, the blood from the high-fat diet-induced obesity model mice was examined at the Kumamoto Mouse Clinic (Kumamoto National University Corp.)."}, "[5]": {"conditions": "compared with metformin 300 mg/kg"}},
  "data": [
    {"smiles": "CC(C)(C)SCCNC(=S)c1cccc(C(=S)NCCSC(C)(C)C)n1", "note": "[HPH-15]", "values": [
      {"measurement": "AMPK activation (p-AMPK/AMPK) compared to when metformin was used", "setting": "[1]", "value": "approximately 170%"},
      {"measurement": "neutral fat accumulation", "setting": "[2]", "value": "had an inhibitory effect on neutral fat accumulation in the presence of high glucose in the same manner as metformin"},
      {"measurement": "glucose metabolism (blood glucose levels, IAUC) after glucose loading", "setting": "[3]", "value": "significantly improved"},
      {"measurement": "toxicity (blood test)", "setting": "[4]", "value": "No toxicity was observed"},
      {"measurement": "other blood test items", "setting": "[4]; compared to olive oil", "value": "no differences were observed"},
      {"measurement": "ALT value (blood test)", "setting": "[4]; [5]", "value": "lower than that of metformin"},
      {"measurement": "AST value (blood test)", "setting": "[4]; [5]", "value": "significantly lower than those of metformin"},
      {"measurement": "LD value (blood test)", "setting": "[4]; [5]", "value": "significantly lower than those of metformin"}
    ]}
  ]
}
